Converted amounts (≈) assume the structure as drawn.
Assays:
[1] = tested on: Methicillin-susceptible S. aureus (MSSA) ATCC 19636; assay: MIC assay, CLSI broth microdilution in CAMH broth; assay type: cell-based, Staphylococcus aureus
Method: (§1) MIC assays for various Gram-negative and Gram-positive strains were conducted in accordance with the CLSI guidelines for broth microdilution. A 96-well plate containing CAMH broth with 2-fold serial dilution of compounds was inoculated with log-phase bacterial at 5×10^5 CFU/mL. The final volume in each well was 100 μL. Each compound was tested in duplicate. The microtiter plates were incubated in an aerobic environment for 18 hours at 37° C. Then the bacterial growth was tested by reading the plate with a SpectraMax iD5 plate reader (Molecular Devices, Inc.) at 600 nm. The MIC was defined as the lowest compound concentration that inhibited bacteria growth.
(§2) The following Gram-negative and Gram-positive strains were used in the aerobic MIC procedure: • P. aeruginosa ATCC 27853 • A. baumannii ATCC 19606 • E. coli ATCC 25922 • E. coli W4573 • E. coli N43 • K. pneumoniae ATCC 10031 • K. pneumoniae ATCC 13883 • S. sonnei ATCC 29930 • P. mirabilis ATCC 29906 • Methicillin-susceptible S. aureus (MSSA) ATCC 19636 • Methicillin-resistant S. aureus (MRSA) ATCC 33951

[2] = tested on: N. gonorrhoeae ATCC 49226; assay: MIC assay for N. gonorrhoeae, broth microdilution in Todd-Hewitt (TH) broth; assay type: cell-based; settings: Neisseria gonorrhoeae, ATCC49226; Antibacterial Activity against N. gonorrhoeae ATCC 49226 in TH
Excerpt: MIC assays for N. gonorrhoeae were done using the ATCC 49226 strain. The procedure guidelines recommended by the Clinical and Laboratory Standards Institute (CLSI) for the broth microdilution MIC assay were modified by substituting […]. Also, the recommended bacterial inoculum was modified to meet the high inoculum demands needed for N. gonorrhoeae growth. A 96-well plate containing TH broth with 2-fold serial dilution of compounds was inoculated with log-phase bacterial at 2.5×10^7 CFU/mL. The final volume in each well was 200 μL. Each compound was tested in duplicate. The microtiter plates were incubated in an […] environment for 24 hours at 37° C. using the candle jar technique. Then the bacterial growth was tested by reading the plate with a SpectraMax iD5 plate reader (Molecular Devices, Inc.) at 600 nm. The MIC was defined as the lowest compound concentration that inhibited bacteria growth.

P. aeruginosa ATCC 27853 = assay: MIC assay, CLSI broth microdilution in CAMH broth; assay type: cell-based, Pseudomonas aeruginosa; settings: P. aeruginosa ATCC 278538
Method: as §1, §2

[3] = tested on: Methicillin-resistant S. aureus (MRSA) ATCC 33591; assay: MIC assay, CLSI broth microdilution in CAMH broth; assay type: cell-based, Staphylococcus aureus
Method: as §1, with “growth. […]” for “growth.”

K. pneumoniae ATCC 10031 = assay: MIC assay, CLSI broth microdilution in CAMH broth; assay type: cell-based, Klebsiella pneumoniae; settings: K. pneumonias ATCC 10031
Method: as §1, §2

K. pneumoniae ATCC 13883 = assay: MIC assay, CLSI broth microdilution in CAMH broth; assay type: cell-based, Klebsiella pneumoniae; settings: K. pneumonias ATCC 13883
Method: as §1, §2

P. mirabilis ATCC 29906 = assay: MIC assay, CLSI broth microdilution in CAMH broth; assay type: cell-based, Proteus mirabilis
Method: as §1, §2

E. coli W4573 = assay: MIC assay, CLSI broth microdilution in CAMH broth; assay type: cell-based, Escherichia coli
Method: as §1, §2

E. coli N43 = assay: MIC assay, CLSI broth microdilution in CAMH broth; assay type: cell-based, Escherichia coli
Method: as §1, §2

SMILES | Intrinsic MIC in CAMH [1] | MIC [2] | Intrinsic MIC in CAMH (P. aeruginosa ATCC 27853) | Intrinsic MIC in CAMH [3] | Intrinsic MIC in CAMH (K. pneumoniae ATCC 10031) | Intrinsic MIC in CAMH (K. pneumoniae ATCC 13883) | Intrinsic MIC in CAMH (P. mirabilis ATCC 29906) | Intrinsic MIC in CAMH (E. coli W4573) | Intrinsic MIC in CAMH (E. coli N43)
Nc1nc(N)c2ccc3c(ccn3Cc3cc(Br)ccc3F)c2n1 [Example 34, 7-(5-bromo-2-fluorobenzyl)-7H-pyrrolo[2,3-h]quinazoline-2,4-diamine] | ≤0.063¤ | 16 µg/mL (≈ 41.4 µM) | >64¤ | ≤0.063¤ | <0.125¤ | 64¤ | 64¤ | 2¤ | 
Nc1nc(N)c2ccc3c(ccn3Cc3ccc(Br)cc3Br)c2n1 [Example 35, 7-(2,4-dibromobenzyl)-7H-pyrrolo[2,3-h]quinazoline-2,4-diamine] | 0.5¤ | 4 µg/mL (≈ 8.95 µM) | >64¤ | 1¤ | 0.25¤ | >64¤ | >64¤ | 8¤ | <0.125¤
Nc1nc(N)c2ccc3c(ccn3Cc3ccc(-c4ccccc4C(F)(F)F)cc3)c2n1 [Example 36, 7-((2′-(trifluoromethyl)-[1,1′-biphenyl]-4-yl)methyl)-7H-pyrrolo[2,3-h]quinazoline-2,4-diamine] | 0.5¤ | 8 µg/mL (≈ 18.5 µM) | >64¤ | 0.5¤ | 1¤ | >64¤ | >64¤ | 8¤ | <0.125¤
N#Cc1ccccc1-c1ccc(Cn2ccc3c4nc(N)nc(N)c4ccc32)cc1F [Example 38, 4′-((2,4-diamino-7H-pyrrolo[2,3-h]quinazolin-7-yl)methyl)-2′-fluoro-[1,1′-biphenyl]-2-carbonitrile] | ≤0.063¤ | 0.125 µg/mL (≈ 0.306 µM) | >64¤ | ≤0.063¤ | <0.125¤ | 16¤ | >64¤ | 1¤ | 
N#Cc1ccccc1-c1ccc(Cn2ccc3c4nc(N)nc(N)c4ccc32)c(F)c1 [Example 39, 4′-((2,4-diamino-7H-pyrrolo[2,3-h]quinazolin-7-yl)methyl)-3′-fluoro-[1,1′-biphenyl]-2-carbonitrile] | ≤0.063¤ |  | >64¤ | ≤0.063¤ | 1¤ | >64¤ | >64¤ | 8¤ | ≤0.063¤
Nc1nc(N)c2ccc3c(ccn3CC#Cc3ccccc3)c2n1 [Example 41, 7-(3-phenylprop-2-yn-1-yl)-7H-pyrrolo[2,3-h]quinazoline-2,4-diamine] | 0.5¤ | 8 µg/mL (≈ 25.5 µM) | >64¤ | 1¤ | <0.125¤ | 8¤ | >64¤ | 2¤ | 
C#Cc1ccc(Cn2ccc3c4nc(N)nc(N)c4ccc32)cc1 [Example 42, 7-(4-ethynylbenzyl)-7H-pyrrolo[2,3-h]quinazoline-2,4-diamine] | ≤0.063¤ | 8 µg/mL (≈ 25.5 µM) | >64¤ | ≤0.063¤ | <0.125¤ | 32¤ | 32¤ | 4¤ | 
Nc1nc(N)c2ccc3c(ccn3Cc3cccc(C#Cc4ccccc4)c3)c2n1 [Example 44, 7-(3-(phenylethynyl)benzyl)-7H-pyrrolo[2,3-h]quinazoline-2,4-diamine] | 2¤ |  | >64¤ | 1¤ | 32¤ | >64¤ | >64¤ | >64¤ | 4¤
Nc1nc(N)c2ccc3c(ccn3Cc3cccc(C#Cc4ccccc4C(F)(F)F)c3)c2n1 [Example 45, 7-(3-((2-(trifluoromethyl)phenyl)ethynyl)benzyl)-7H-pyrrolo[2,3-h]quinazoline-2,4-diamine] | 2¤ |  | >64¤ | 2¤ | >64¤ | >64¤ | >64¤ | >64¤ | 32¤
N#Cc1ccccc1-c1ccc(Cn2ccc3c4nc(N)nc(N)c4cnc32)cc1 [Example 49, 4′-((2,4-diamino-7H-pyrrolo[3′,2′:5,6]pyrido[4,3-d]pyrimidin-7-yl)methyl)-[1,1′-biphenyl]-2-carbonitrile] | ≤0.063¤ |  | >64¤ | ≤0.063¤ | 0.5¤ | >64¤ | >64¤ | >64¤ | <0.125¤
Nc1nc(N)c2cnc3c(ccn3Cc3cccc(Br)c3)c2n1 [Example 50, 7-(3-bromobenzyl)-7H-pyrrolo[3′,2′:5,6]pyrido[4,3-d]pyrimidine-2,4-diamine] | ≤0.063¤ |  | >64¤ | ≤0.063¤ | 1¤ | >64¤ | >64¤ | 32¤ | ≤0.063¤
N#Cc1ccccc1-c1ccc(CNc2nc(N)c3cnc4c(ccn4Cc4ccc(-c5ccccc5C#N)c(F)c4)c3n2)cc1F [Example 52, 4′-((4-amino-2-(((2′-cyano-2-fluoro-[1,1′-biphenyl]-4-yl)methyl)amino)-7H-pyrrolo[3′,2′:5,6]pyrido[4,3-d]pyrimidin-7-yl)methyl)-2′-fluoro-[1,1′-biphenyl]-2-carbonitrile] | >64¤ |  |  | >64¤ |  |  | >64¤ |  | 
C#Cc1ccc(Cn2ccc3c4nc(N)nc(N)c4cnc32)cc1 [Example 53, 7-(4-ethynylbenzyl)-7H-pyrrolo[3′,2′:5,6]pyrido[4,3-d]pyrimidine-2,4-diamine] | ≤0.063¤ |  |  | ≤0.063¤ |  |  | >64¤ |  | 

Source: patent publication US20240317749A1, “THERAPEUTIC COMPOUNDS” (priority 2021, published 2024)
